Laboratory results reported in patent US20070154393A1, “Bioassay for volatile low molecular weight insecticides and methods of use” (priority 2005, published 2007).
Read-outs that look alike come from different tables or passages of the source.

System: insecticide-susceptible Drosophila melanogaster (Canton-S strain)
Type: in vivo
Details: for Slope ± Std. Error (best-fit probit mortality line): Table 1, 24 hr exposure, probit analysis; for Slope ± Std. Error (best-fit probit mortality line) / Slope ± Std. Error (probit mortality line): Canton-S; for Slope ± Std. Error (probit mortality line): 24 hr
Experimental: The insecticide-susceptible Canton-S strain of Drosophila was obtained from the Bloomington Drosophila stock center (Indiana University, Bloomington, Ind.), and used exclusively in all studies. Flies were reared in 100-ml vials capped with acetate plugs (Fisher Scientific; Suwannee, Ga.) on a JAZZ-MIX diet (Fisher) prepared with a 2:1 ratio of water to apple juice. Flies were reared on a 12:12 photocycle at 24° C. and ambient relative humidity. Mixed-sex adults, less than 1-wk old, were used in bioassays.
Flies were briefly anesthetized in rearing vials with a pulse of CO2 and transferred to a CO2 flowbed (Genesee Scientific; San Diego, Calif.). Using a camel hair brush and a 5×5 cm sheet of rice paper, ten flies were placed into 7.0 ml dram vials. Prior to adding flies, each vial received a 0.5 cm^3 block of rearing diet that had been sufficiently dried on a paper towel to remove excessive moisture. The vials were then capped with open-top septum caps (Fisher) that were covered with fine mesh. The mesh was applied to the septum caps in advance using hot glue; it prevented fly escape but readily permitted gas exchange. The flies were allowed 1-hr to recover from the CO2 anesthesia. After one hour, single vials with flies were placed into 0.5 L glass jars, along with a filter paper tent (see FIG. 1). In a fume hood, filter paper tents were treated with insecticide dilutions or acetone for controls. The jars were then rapidly closed tightly with a metal lid. After 24 hours of exposure, mortality was scored with the aid of a magnifying glass.
All test compounds and solvents were >99% purity, and were purchased from Sigma-Aldrich Chemical (Milwaukee, Wis.). See Table 1 for a listing of the test compounds and their structures. Insecticide stock solutions were prepared at a standard concentration of 100 μg/μl in analytical grade acetone. For liquid insecticidal compounds, density in mg/μl was used to calculate weight on a per-volume basis. Stock solutions were held at −20° C. in sealed amber vials. In bioassay jars, filter paper tents were treated with stock volumes ranging from 2 to 20 μl, depending on the inherent toxicity of the test compound. These volumes of insecticide stock provided test concentrations of 200 to 2000 μg insecticide per replicate jar. A range of 4-5 concentrations plus a control were tested for each insecticide, and each range was repeated five times over at least three days. Controls received a volume of acetone identical to the highest insecticide volume that was tested (i.e., 10 μl for menthofuran; 20 μl for all other insecticides). Between uses, bioassay jars and lids were washed in a dishwasher, then baked 12-16 hr at 90° C. in a drying oven.
Probit and regression analyses were performed using the PROC PROBIT and PROC REG procedures, respectively. […] If control mortality ever exceeded 10% in a given replicate, that replicate was discarded.
Four Drosophila strains were used, all obtained from the Bloomington Drosophila Stock Center (Indiana University; Bloomington, Ind.). The Canton-S strain was used as the insecticide-susceptible standard. The Hikone-R strain is metabolically-resistant with elevated cytochrome P450 levels (Waters et al., 1984; Sundseth et al., 1989; Le Goff et al., 2003; Festucci-Buselli et al., 2005). Hikone-R is resistant to a number of insecticides, including malathion, DDT and neonicotinoids (Sundseth et al., 1989; Daborn et al., 2001). Two resistant neurological-mutant strains were also tested. […] Flies were reared in 100-ml vials capped with acetate plugs (Fisher Scientific; Suwanee, Ga.) on a commercial diet (JAZZ-MIX; Fisher Scientific). Flies were reared on a 12:12 photocycle at 24° C. and 60% relative humidity. Mixed-sex adults, less than 1-wk old, were used in bioassays.

[1] = Table 2, data taken from Scharf et al. (2006)

Row | Substance | Slope ± Std. Error (best-fit probit mortality line) | Slope ± Std. Error (probit mortality line) [1] | Slope ± Std. Error (probit mortality line) (Table 3, no synergist) | LC50 (95% CL) (in vivo)
1 | ethyl formate | 5.18 ± 1.07 | 5.18 ± 1.07 | 5.18 ± 1.07 | 1656.0 (1486.0 − 1917.0) μg/jar
2 | methyl formate | 3.27 ± 0.95 | 3.27 ± 0.95 | 3.27 ± 0.95 | –
